{"source": "ChEMBL document CHEMBL1201862", "about": "“PubChem BioAssay data set” (2004)", "test_in_all_cases": "DTP human tumour cell line panel, 48 h", "key": {"A498": {"tested_on": "A498"}, "A549": {"tested_on": "A549"}, "ACHN": {"tested_on": "ACHN"}, "BT-549": {"tested_on": "BT-549"}, "CAKI-1": {"tested_on": "CAKI-1"}, "CCRF-CEM": {"tested_on": "CCRF-CEM"}, "COLO 205": {"tested_on": "COLO 205"}, "DU-145": {"tested_on": "DU-145"}, "EKVX": {"tested_on": "EKVX"}, "HCC 2998": {"tested_on": "HCC 2998"}, "HCT-116": {"tested_on": "HCT-116"}, "HCT-15": {"tested_on": "HCT-15"}, "HL-60": {"tested_on": "HL-60"}, "HOP-62": {"tested_on": "HOP-62"}, "HT-29": {"tested_on": "HT-29"}, "Hs-578T": {"tested_on": "Hs-578T"}, "IGROV-1": {"tested_on": "IGROV-1"}, "K562": {"tested_on": "K562"}, "KM12": {"tested_on": "KM12"}, "LOX IMVI": {"tested_on": "LOX IMVI"}, "MCF7": {"tested_on": "MCF7"}, "MDA-MB-231": {"tested_on": "MDA-MB-231"}, "MDA-MB-435": {"tested_on": "MDA-MB-435"}, "MDA-N": {"tested_on": "MDA-N"}, "MOLT-4": {"tested_on": "MOLT-4"}, "Malme-3M": {"tested_on": "Malme-3M"}, "NCI-H226": {"tested_on": "NCI-H226"}, "NCI-H23": {"tested_on": "NCI-H23"}, "NCI-H460": {"tested_on": "NCI-H460"}, "NCI-H522": {"tested_on": "NCI-H522"}, "NCI/ADR-RES": {"tested_on": "NCI/ADR-RES"}, "OVCAR-3": {"tested_on": "OVCAR-3"}, "OVCAR-4": {"tested_on": "OVCAR-4"}, "OVCAR-5": {"tested_on": "OVCAR-5"}, "OVCAR-8": {"tested_on": "OVCAR-8"}, "PC-3": {"tested_on": "PC-3"}, "RPMI-8226": {"tested_on": "RPMI-8226"}, "RXF 393": {"tested_on": "RXF 393"}, "SF-268": {"tested_on": "SF-268"}, "SF-295": {"tested_on": "SF-295"}, "SF-539": {"tested_on": "SF-539"}, "SK-MEL-28": {"tested_on": "SK-MEL-28"}, "SK-MEL-2": {"tested_on": "SK-MEL-2"}, "SK-MEL-5": {"tested_on": "SK-MEL-5"}, "SK-OV-3": {"tested_on": "SK-OV-3"}, "SN12C": {"tested_on": "SN12C"}, "SNB-19": {"tested_on": "SNB-19"}, "SNB-75": {"tested_on": "SNB-75"}, "SR": {"tested_on": "SR"}, "SW-620": {"tested_on": "SW-620"}, "T47D": {"tested_on": "T47D"}, "TK-10": {"tested_on": "TK-10"}, "U-251": {"tested_on": "U-251"}, "UACC-257": {"tested_on": "UACC-257"}, "UACC-62": {"tested_on": "UACC-62"}, "UO-31": {"tested_on": "UO-31"}}, "note": "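Cells were grown in 96-well plates and exposed to each compound for 48 hours at five concentrations; endpoints were interpolated linearly between bracketing concentrations, or set to the highest concentration if not reached. Abbreviation: GI50, concentration required for 50% inhibition of growth.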 Activity calls are given as the source filed them. Rule as the data show it: active = GI50 up to about 1.1 µM and inactive = higher.", "data": [{"compound": "Cc1cnc(/C=N\\NC(N)=S)c2cccc(N)c12", "values": [{"measurement": "GI50", "setting": "A498", "value": "10800 nM (inactive)"}, {"measurement": "GI50", "setting": "A549", "value": "2580 nM (inactive)"}, {"measurement": "GI50", "setting": "ACHN", "value": "387 nM (active)"}, {"measurement": "GI50", "setting": "BT-549", "value": "536 nM (active)"}, {"measurement": "GI50", "setting": "CAKI-1", "value": "516 nM (active)"}, {"measurement": "GI50", "setting": "CCRF-CEM", "value": "278 nM (active)"}, {"measurement": "GI50", "setting": "COLO 205", "value": "1400 nM (inactive)"}, {"measurement": "GI50", "setting": "DU-145", "value": "411 nM (active)"}, {"measurement": "GI50", "setting": "EKVX", "value": "1100 nM (active)"}, {"measurement": "GI50", "setting": "HCC 2998", "value": "578 nM (active)"}, {"measurement": "GI50", "setting": "HCT-116", "value": "724 nM (active)"}, {"measurement": "GI50", "setting": "HCT-15", "value": 780, "unit": "nM"}, {"measurement": "GI50", "setting": "HL-60", "value": "300 nM (active)"}, {"measurement": "GI50", "setting": "HOP-62", "value": "904 nM (active)"}, {"measurement": "GI50", "setting": "HT-29", "value": "711 nM (active)"}, {"measurement": "GI50", "setting": "Hs-578T", "value": "> 100000 nM (inactive)"}, {"measurement": "GI50", "setting": "IGROV-1", "value": "1750 nM (inactive)"}, {"measurement": "GI50", "setting": "K562", "value": "881 nM (active)"}, {"measurement": "GI50", "setting": "KM12", "value": "1900 nM (inactive)"}, {"measurement": "GI50", "setting": "LOX IMVI", "value": "445 nM (active)"}, {"measurement": "GI50", "setting": "MCF7", "value": "526 nM (active)"}, {"measurement": "GI50", "setting": "MDA-MB-231", "value": "1520 nM (inactive)"}, {"measurement": "GI50", "setting": "MDA-MB-435", "value": "1480 nM (inactive)"}, {"measurement": "GI50", "setting": "MDA-N", "value": "767 nM (active)"}, {"measurement": "GI50", "setting": "MOLT-4", "value": "340 nM (active)"}, {"measurement": "GI50", "setting": "Malme-3M", "value": "1620 nM (inactive)"}, {"measurement": "GI50", "setting": "NCI-H226", "value": "1390 nM (inactive)"}, {"measurement": "GI50", "setting": "NCI-H23", "value": "334 nM (active)"}, {"measurement": "GI50", "setting": "NCI-H460", "value": "538 nM (active)"}, {"measurement": "GI50", "setting": "NCI-H522", "value": "871 nM (active)"}, {"measurement": "GI50", "setting": "NCI/ADR-RES", "value": "1840 nM (inactive)"}, {"measurement": "GI50", "setting": "OVCAR-3", "value": "426 nM (active)"}, {"measurement": "GI50", "setting": "OVCAR-4", "value": "1950 nM (inactive)"}, {"measurement": "GI50", "setting": "OVCAR-5", "value": "5460 nM (inactive)"}, {"measurement": "GI50", "setting": "OVCAR-8", "value": "838 nM (active)"}, {"measurement": "GI50", "setting": "PC-3", "value": "2270 nM (inactive)"}, {"measurement": "GI50", "setting": "RPMI-8226", "value": "714 nM (active)"}, {"measurement": "GI50", "setting": "RXF 393", "value": "728 nM (active)"}, {"measurement": "GI50", "setting": "SF-268", "value": "565 nM (active)"}, {"measurement": "GI50", "setting": "SF-295", "value": "1970 nM (inactive)"}, {"measurement": "GI50", "setting": "SF-539", "value": "676 nM (active)"}, {"measurement": "GI50", "setting": "SK-MEL-28", "value": "3270 nM (inactive)"}, {"measurement": "GI50", "setting": "SK-MEL-2", "value": "2100 nM (inactive)"}, {"measurement": "GI50", "setting": "SK-MEL-5", "value": "2040 nM (inactive)"}, {"measurement": "GI50", "setting": "SK-OV-3", "value": "2590 nM (inactive)"}, {"measurement": "GI50", "setting": "SN12C", "value": "434 nM (active)"}, {"measurement": "GI50", "setting": "SNB-19", "value": "1300 nM (inactive)"}, {"measurement": "GI50", "setting": "SNB-75", "value": "553 nM (active)"}, {"measurement": "GI50", "setting": "SR", "value": "314 nM (active)"}, {"measurement": "GI50", "setting": "SW-620", "value": "3010 nM (inactive)"}, {"measurement": "GI50", "setting": "T47D", "value": "497 nM (active)"}, {"measurement": "GI50", "setting": "TK-10", "value": "5780 nM (inactive)"}, {"measurement": "GI50", "setting": "U-251", "value": "604 nM (active)"}, {"measurement": "GI50", "setting": "UACC-257", "value": "2540 nM (inactive)"}, {"measurement": "GI50", "setting": "UACC-62", "value": "359 nM (active)"}, {"measurement": "GI50", "setting": "UO-31", "value": "520 nM (active)"}]}]}
